Assay in all cases: Enzymatic Activity Assay
One assay concerns the target T1, Histone deacetylase 6 (Homo sapiens, UniProt Q9UBN7).
T1 sequence (Q9UBN7 whole entry): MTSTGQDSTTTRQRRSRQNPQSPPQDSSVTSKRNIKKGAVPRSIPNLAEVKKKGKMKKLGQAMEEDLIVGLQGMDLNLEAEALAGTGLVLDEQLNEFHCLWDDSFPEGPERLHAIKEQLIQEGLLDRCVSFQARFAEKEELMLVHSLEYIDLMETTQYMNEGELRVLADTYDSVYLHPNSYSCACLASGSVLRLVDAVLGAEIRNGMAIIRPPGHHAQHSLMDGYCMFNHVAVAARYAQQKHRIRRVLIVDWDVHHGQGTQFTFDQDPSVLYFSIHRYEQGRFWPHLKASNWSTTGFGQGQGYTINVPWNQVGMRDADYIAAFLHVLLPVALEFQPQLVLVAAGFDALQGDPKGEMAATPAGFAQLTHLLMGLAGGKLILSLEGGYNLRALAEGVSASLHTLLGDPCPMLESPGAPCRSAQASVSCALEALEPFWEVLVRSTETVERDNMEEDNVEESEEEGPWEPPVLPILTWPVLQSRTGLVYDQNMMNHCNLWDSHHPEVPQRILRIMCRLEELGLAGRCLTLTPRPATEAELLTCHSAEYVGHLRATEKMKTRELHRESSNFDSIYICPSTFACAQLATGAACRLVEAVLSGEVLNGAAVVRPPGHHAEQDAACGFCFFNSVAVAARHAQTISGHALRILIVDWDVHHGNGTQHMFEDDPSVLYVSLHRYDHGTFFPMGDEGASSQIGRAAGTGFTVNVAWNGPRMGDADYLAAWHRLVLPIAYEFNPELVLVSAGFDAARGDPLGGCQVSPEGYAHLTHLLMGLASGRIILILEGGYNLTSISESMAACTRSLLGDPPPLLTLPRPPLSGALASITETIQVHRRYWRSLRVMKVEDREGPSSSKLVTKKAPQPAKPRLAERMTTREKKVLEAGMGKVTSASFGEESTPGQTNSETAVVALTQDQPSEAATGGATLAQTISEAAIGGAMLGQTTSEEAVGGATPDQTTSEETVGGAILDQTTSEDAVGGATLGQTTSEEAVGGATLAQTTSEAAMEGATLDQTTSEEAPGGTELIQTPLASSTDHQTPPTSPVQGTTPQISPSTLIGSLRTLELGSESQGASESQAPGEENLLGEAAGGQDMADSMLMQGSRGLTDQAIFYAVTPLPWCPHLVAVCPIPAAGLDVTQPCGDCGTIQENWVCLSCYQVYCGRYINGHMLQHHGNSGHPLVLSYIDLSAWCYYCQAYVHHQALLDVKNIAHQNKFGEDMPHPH
The protocol: (§1) After a period of preincubation (incubation times and temperatures vary for different isoforms and are shown in table 1) 25 μL of solution containing the substrate were added. […] Enzymatic activity on recombinant human HDAC6 and HDAC1 was evaluated (Table 2) for each synthesized compound.

For a further assay, the target named is Histone deacetylase 2 (Homo sapiens, UniProt Q92769). The method, then:
as §1

The target in a further assay is T2, Histone deacetylase 7 (Homo sapiens, UniProt Q8WUI4).
T2 sequence (Q8WUI4 whole entry): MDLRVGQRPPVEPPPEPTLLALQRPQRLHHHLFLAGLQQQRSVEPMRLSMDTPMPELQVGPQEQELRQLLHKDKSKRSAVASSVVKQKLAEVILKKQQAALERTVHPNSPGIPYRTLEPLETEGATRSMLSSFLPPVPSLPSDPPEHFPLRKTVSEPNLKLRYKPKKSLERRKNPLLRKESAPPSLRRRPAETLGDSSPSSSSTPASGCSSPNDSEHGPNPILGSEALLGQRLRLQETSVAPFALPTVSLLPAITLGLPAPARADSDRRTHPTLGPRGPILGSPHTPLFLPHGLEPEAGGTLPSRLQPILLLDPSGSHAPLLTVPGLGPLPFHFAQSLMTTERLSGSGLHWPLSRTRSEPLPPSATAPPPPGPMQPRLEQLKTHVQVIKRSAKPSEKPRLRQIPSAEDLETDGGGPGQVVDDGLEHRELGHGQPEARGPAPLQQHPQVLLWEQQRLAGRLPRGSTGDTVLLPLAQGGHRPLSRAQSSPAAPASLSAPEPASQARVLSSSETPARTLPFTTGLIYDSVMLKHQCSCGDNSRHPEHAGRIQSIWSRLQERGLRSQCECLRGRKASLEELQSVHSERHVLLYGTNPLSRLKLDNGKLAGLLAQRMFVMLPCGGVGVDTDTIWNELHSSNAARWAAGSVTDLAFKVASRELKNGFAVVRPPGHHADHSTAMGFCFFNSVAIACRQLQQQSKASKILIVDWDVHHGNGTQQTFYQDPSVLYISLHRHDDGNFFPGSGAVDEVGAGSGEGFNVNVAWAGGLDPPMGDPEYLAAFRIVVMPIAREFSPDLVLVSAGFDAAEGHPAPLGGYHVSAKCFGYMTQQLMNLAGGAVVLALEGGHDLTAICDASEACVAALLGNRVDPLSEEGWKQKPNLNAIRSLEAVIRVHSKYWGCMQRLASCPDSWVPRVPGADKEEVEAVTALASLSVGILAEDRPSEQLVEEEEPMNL
The method, then: as §1

Another assay concerns the target Histone deacetylase 3 (Homo sapiens, UniProt O15379). The method, then: as §1
A further assay deals with Histone deacetylase 4 (Homo sapiens, UniProt P56524). The method, then:
as §1

Another assay concerns the target Histone deacetylase 5 (Homo sapiens, UniProt Q9UQL6). The method, then: as §1

A word on the IC50: it is the point on the concentration scale where inhibition reaches its midpoint. Higher therefore signals a need for much substance.

Some results are limits rather than exact numbers.

Histone deacetylase 5, sequence (Q9UQL6 whole entry): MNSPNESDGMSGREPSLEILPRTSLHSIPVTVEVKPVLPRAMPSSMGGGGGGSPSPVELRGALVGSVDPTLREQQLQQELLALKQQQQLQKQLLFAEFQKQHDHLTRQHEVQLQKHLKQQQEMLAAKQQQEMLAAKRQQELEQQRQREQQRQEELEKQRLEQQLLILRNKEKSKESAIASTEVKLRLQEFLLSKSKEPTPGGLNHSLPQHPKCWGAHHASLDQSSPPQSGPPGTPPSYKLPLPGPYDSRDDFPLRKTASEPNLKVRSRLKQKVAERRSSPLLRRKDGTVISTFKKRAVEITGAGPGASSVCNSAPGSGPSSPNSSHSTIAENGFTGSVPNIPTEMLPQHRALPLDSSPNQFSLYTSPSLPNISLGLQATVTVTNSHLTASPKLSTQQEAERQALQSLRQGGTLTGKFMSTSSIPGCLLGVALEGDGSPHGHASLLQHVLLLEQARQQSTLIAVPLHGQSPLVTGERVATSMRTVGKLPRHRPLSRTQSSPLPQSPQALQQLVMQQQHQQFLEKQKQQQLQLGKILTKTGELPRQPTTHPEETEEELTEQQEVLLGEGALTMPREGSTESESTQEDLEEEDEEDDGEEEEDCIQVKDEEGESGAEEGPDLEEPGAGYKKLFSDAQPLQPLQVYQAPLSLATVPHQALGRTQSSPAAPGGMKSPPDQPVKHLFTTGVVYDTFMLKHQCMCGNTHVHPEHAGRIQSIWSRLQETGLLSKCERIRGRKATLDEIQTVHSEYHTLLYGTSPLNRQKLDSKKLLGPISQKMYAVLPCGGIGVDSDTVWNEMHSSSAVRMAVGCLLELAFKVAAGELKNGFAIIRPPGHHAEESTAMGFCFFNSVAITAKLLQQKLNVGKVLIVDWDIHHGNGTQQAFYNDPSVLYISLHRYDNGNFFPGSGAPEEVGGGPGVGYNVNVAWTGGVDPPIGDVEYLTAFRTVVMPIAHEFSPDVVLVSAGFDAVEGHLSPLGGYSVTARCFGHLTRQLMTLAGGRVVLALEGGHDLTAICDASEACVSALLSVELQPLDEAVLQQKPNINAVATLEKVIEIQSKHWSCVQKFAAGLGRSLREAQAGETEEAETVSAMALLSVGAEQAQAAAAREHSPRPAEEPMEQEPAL
Histone deacetylase 2, sequence (Q92769 whole entry): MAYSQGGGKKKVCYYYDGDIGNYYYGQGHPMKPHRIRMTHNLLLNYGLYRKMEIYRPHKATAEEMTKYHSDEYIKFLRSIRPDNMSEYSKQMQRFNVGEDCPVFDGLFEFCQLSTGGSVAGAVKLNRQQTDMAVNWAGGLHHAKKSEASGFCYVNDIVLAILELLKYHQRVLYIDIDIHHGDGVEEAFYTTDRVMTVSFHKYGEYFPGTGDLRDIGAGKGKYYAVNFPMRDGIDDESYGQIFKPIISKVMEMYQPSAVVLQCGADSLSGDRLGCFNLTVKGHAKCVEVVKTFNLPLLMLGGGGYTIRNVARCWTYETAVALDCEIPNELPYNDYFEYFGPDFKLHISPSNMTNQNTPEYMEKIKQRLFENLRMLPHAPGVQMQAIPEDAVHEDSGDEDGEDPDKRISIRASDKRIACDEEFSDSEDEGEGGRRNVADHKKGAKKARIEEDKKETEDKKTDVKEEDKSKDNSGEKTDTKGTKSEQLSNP
Histone deacetylase 3, sequence (O15379 whole entry): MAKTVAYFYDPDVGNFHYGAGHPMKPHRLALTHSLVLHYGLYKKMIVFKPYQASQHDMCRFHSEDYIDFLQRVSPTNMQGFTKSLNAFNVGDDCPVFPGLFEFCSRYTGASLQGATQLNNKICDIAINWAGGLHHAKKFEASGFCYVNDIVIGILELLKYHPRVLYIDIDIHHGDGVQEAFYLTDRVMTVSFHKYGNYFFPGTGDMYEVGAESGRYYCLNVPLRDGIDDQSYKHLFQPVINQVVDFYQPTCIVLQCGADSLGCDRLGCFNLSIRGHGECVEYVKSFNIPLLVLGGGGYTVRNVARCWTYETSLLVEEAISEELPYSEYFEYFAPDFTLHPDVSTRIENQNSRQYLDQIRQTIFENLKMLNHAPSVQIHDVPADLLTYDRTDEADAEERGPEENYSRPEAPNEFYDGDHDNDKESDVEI
Histone deacetylase 4, sequence (P56524 whole entry): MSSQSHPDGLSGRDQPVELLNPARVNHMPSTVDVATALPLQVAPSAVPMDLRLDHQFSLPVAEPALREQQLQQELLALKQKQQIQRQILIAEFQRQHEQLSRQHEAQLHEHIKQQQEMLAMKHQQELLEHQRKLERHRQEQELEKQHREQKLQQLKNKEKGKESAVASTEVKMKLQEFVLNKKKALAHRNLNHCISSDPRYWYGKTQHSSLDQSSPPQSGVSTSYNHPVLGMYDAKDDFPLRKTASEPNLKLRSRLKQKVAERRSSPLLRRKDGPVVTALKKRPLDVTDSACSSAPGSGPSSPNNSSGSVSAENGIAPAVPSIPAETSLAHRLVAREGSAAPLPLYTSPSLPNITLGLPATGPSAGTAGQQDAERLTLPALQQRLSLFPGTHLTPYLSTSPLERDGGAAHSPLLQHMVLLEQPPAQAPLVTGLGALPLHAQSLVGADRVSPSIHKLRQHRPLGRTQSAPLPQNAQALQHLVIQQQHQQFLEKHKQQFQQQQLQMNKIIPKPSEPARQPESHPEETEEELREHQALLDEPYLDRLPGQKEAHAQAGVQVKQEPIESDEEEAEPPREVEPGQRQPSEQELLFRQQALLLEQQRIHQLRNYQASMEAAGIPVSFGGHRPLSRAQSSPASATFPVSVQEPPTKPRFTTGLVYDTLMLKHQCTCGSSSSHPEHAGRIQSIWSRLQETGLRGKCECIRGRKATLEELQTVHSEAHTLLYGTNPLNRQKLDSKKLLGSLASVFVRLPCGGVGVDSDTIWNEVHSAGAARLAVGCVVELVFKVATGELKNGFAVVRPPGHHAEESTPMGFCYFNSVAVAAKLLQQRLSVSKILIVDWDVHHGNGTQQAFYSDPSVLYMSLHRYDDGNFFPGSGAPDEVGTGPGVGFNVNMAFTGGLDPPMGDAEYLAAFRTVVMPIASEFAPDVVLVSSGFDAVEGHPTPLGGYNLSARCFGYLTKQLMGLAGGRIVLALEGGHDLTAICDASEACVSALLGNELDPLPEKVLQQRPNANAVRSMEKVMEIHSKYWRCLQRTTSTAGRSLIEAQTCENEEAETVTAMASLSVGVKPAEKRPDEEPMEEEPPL

On to `Nc1nc2ccc(-c3cn(Cc4ccc(-c5nnc(C(F)F)o5)cc4)nn3)cc2s1` [US20230286970, Compound 14], for which the IC50 was 0.025 µM at Histone deacetylase 6; over 30 µM on Histone deacetylase 2; over 30 µM on Histone deacetylase 7; over 30 µM against Histone deacetylase 3; over 30 µM on Histone deacetylase 4; over 30 µM against Histone deacetylase 5.

Consider `Nc1ccc(-c2cn(Cc3ccc(-c4nnc(C(F)F)o4)c(F)c3)nn2)cn1` [US20230286970, Compound 15], for which the IC50 against Histone deacetylase 6 was 0.026 µM; against Histone deacetylase 2, over 30 µM; on Histone deacetylase 7, over 30 µM; against Histone deacetylase 3, over 30 µM; at Histone deacetylase 4, over 30 µM; against Histone deacetylase 5, over 30 µM.
